According to US11691980B2, “Liphagal analog and multi-targeted kinase inhibitor containing liphagal or analog thereof” (TOHOKU UNIVERSITY, priority 2017, dated 2023):

Columns and labels:
Assay type in all cases: biochemical
FGFR4 = biological target: T1, FGFR4 (Homo sapiens, UniProt P22455); assay: mobility shift assay
T1 construct: purchased Carna Biosciences

CaMK2β = biological target: T2, CaMK2β (Homo sapiens, UniProt Q13554); assay: mobility shift assay
T2 construct: purchased Carna Biosciences

TAOK2 = biological target: T3, TAOK2 (Homo sapiens, UniProt Q9UL54); assay: mobility shift assay
T3 construct: purchased Carna Biosciences

CGK2 = biological target: T4, CGK2 (Homo sapiens, UniProt Q13237); assay: mobility shift assay
T4 construct: purchased Carna Biosciences

DYRK2 = biological target: T5, DYRK2 (Homo sapiens, UniProt Q92630); assay: mobility shift assay
T5 construct: purchased Carna Biosciences

CK1y1 = biological target: T6, CK1y1 (Homo sapiens, UniProt Q9HCP0); assay: mobility shift assay
T6 construct: purchased Carna Biosciences

AMFKα2/β1/γ1 = biological target: T7, AMFKα2/β1/γ1 (Homo sapiens, UniProt P54646); assay: mobility shift assay
T7 construct: purchased Carna Biosciences

AKT1 = biological target: T8, AKT1 (Homo sapiens, UniProt P31749); assay: mobility shift assay
T8 construct: purchased Carna Biosciences

PKCζ = biological target: T9, PKCζ (Homo sapiens, UniProt Q05513); assay: mobility shift assay
T9 construct: purchased Carna Biosciences

WNK2 = biological target: T10, WNK2 (Homo sapiens, UniProt Q9Y3S1); assay: mobility shift assay
T10 construct: purchased Carna Biosciences

TEC = biological target: T11, TEC (Homo sapiens, UniProt P42680); assay: mobility shift assay
T11 construct: purchased Carna Biosciences

ROCK1 = biological target: T12, ROCK1 (Homo sapiens, UniProt Q13464); assay: mobility shift assay
T12 construct: purchased Carna Biosciences

INSR = biological target: T13, INSR (Homo sapiens, UniProt P06213); assay: mobility shift assay
T13 construct: purchased Carna Biosciences

EGFR(α746-750) = biological target: T14, EGFR(α746-750) (Homo sapiens, UniProt P00533, DEL746-750); assay: mobility shift assay
T14 construct: purchased Carna Biosciences

JNK1 = biological target: T15, JNK1 (Homo sapiens, UniProt P45983); assay: mobility shift assay
T15 construct: purchased Carna Biosciences

MAP2K4 Cascade = assay: mobility shift assay; settings: 10 μM
CDK9/CvcT1 = biological target: T16, CDK9/CvcT1 (Homo sapiens, UniProt P50750); assay: mobility shift assay
T16 construct: purchased Carna Biosciences

FRK = biological target: T17, FRK (Homo sapiens, UniProt P42685); assay: mobility shift assay
T17 construct: purchased Carna Biosciences

PAK5 = biological target: T18, PAK5 (Homo sapiens, UniProt Q9P286); assay: mobility shift assay
T18 construct: purchased Carna Biosciences

CLK3 = biological target: T19, CLK3 (Homo sapiens, UniProt P49761); assay: mobility shift assay
T19 construct: purchased Carna Biosciences

EEF2K = biological target: T20, EEF2K (Homo sapiens, UniProt O00418); assay: mobility shift assay
T20 construct: purchased Carna Biosciences

EPHA5 = biological target: T21, EPHA5 (Homo sapiens, UniProt P54756); assay: mobility shift assay
T21 construct: purchased Carna Biosciences

ALK = biological target: T22, ALK (Homo sapiens, UniProt Q9UM73); assay: mobility shift assay
T22 construct: purchased Carna Biosciences

NuaK1 = biological target: T23, NuaK1 (Homo sapiens, UniProt O60285); assay: mobility shift assay
T23 construct: purchased Carna Biosciences

BRSK1 = biological target: T24, BRSK1 (Homo sapiens, UniProt Q8TDC3); assay: mobility shift assay
T24 construct: purchased Carna Biosciences

MAP4K2 = biological target: T25, MAP4K2 (Homo sapiens, UniProt Q12851); assay: mobility shift assay
T25 construct: purchased Carna Biosciences

DDR2 = biological target: T26, DDR2 (Homo sapiens, UniProt Q16832); assay: mobility shift assay
T26 construct: purchased Carna Biosciences

LTK = biological target: T27, LTK (Homo sapiens, UniProt P29376); assay: mobility shift assay
T27 construct: purchased Carna Biosciences

PKN1 = biological target: T28, PKN1 (Homo sapiens, UniProt Q16512); assay: IMAP Assay
T28 construct: purchased Carna Biosciences

TNK = biological target: T29, TNK (Homo sapiens, UniProt Q9UKE5); assay: mobility shift assay
T29 construct: purchased Carna Biosciences

MAP3K1_Cascade = biological target: T30, MAP3K1_Cascade (Homo sapiens, UniProt Q13233); assay: mobility shift assay
T30 construct: purchased Carna Biosciences

BTK = biological target: T31, BTK (Homo sapiens, UniProt Q06187); assay: mobility shift assay
T31 construct: purchased Carna Biosciences

FGFR4(V550L) = biological target: T32, FGFR4(V550L) (Homo sapiens, UniProt P22455, V550L); assay: mobility shift assay
T32 construct: purchased Carna Biosciences

MAPXK2 Cascade = assay: mobility shift assay; settings: 10 μM
DCAMKL2 = biological target: T33, DCAMKL2 (Homo sapiens, UniProt Q8N568); assay: mobility shift assay
T33 construct: purchased Carna Biosciences

AXL = biological target: T34, AXL (Homo sapiens, UniProt P30530); assay: mobility shift assay
T34 construct: purchased Carna Biosciences

EPHA7 = biological target: T35, EPHA7 (Homo sapiens, UniProt Q15375); assay: mobility shift assay
T35 construct: purchased Carna Biosciences

PKR = biological target: T36, PKR (Homo sapiens, UniProt P19525); assay: IMAP Assay
T36 construct: purchased Carna Biosciences

PDGF Ru(DB42V) = biological target: T37, PDGF Ru(DB42V) (Homo sapiens, UniProt P16234, D842V); assay: mobility shift assay
T37 construct: purchased Carna Biosciences

MARK1 = biological target: T38, MARK1 (Homo sapiens, UniProt Q9P0L2); assay: mobility shift assay
T38 construct: purchased Carna Biosciences

PHKG2 = biological target: T39, PHKG2 (Homo sapiens, UniProt P15735); assay: mobility shift assay
T39 construct: purchased Carna Biosciences

JAK2 = biological target: T40, JAK2 (Homo sapiens, UniProt O60674); assay: mobility shift assay
T40 construct: purchased Carna Biosciences

T30 sequence (Q13233 whole entry): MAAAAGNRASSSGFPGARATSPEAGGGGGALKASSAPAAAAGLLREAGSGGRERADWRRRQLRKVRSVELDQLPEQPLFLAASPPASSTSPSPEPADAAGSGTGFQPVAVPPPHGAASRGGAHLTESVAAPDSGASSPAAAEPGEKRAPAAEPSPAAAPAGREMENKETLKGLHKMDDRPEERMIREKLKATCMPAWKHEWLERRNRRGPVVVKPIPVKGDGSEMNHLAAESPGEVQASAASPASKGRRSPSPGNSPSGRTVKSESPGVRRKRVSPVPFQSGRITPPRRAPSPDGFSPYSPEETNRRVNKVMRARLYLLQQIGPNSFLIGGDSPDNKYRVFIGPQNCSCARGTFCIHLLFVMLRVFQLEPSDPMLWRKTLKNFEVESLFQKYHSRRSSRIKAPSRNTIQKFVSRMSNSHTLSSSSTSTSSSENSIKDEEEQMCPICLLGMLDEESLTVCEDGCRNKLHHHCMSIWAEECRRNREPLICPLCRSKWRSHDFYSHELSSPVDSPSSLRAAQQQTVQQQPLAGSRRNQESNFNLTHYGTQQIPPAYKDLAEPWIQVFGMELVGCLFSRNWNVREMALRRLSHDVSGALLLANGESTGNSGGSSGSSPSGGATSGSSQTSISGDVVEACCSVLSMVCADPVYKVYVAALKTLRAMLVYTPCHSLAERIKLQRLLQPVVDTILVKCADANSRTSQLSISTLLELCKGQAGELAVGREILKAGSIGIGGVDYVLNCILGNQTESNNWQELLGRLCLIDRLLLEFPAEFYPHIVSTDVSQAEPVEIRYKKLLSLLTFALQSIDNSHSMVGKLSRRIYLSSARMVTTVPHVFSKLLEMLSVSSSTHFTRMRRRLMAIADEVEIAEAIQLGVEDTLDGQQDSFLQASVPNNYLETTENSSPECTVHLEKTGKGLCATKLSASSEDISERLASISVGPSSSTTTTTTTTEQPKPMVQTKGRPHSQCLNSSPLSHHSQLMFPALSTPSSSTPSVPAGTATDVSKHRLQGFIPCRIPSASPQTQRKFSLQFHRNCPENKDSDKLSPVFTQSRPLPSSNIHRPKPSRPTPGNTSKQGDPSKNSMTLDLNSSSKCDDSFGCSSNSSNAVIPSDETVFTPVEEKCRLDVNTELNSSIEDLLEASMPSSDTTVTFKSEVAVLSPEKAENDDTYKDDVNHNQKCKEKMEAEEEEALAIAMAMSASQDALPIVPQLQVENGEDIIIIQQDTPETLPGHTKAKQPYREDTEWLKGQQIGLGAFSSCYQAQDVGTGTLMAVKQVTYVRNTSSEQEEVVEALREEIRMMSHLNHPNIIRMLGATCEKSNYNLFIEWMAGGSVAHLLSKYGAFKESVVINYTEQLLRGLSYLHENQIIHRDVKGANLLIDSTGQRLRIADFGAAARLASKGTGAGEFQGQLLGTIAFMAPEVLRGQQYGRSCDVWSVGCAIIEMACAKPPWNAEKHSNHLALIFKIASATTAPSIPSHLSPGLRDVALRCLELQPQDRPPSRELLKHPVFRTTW
T31 sequence (Q06187 whole entry): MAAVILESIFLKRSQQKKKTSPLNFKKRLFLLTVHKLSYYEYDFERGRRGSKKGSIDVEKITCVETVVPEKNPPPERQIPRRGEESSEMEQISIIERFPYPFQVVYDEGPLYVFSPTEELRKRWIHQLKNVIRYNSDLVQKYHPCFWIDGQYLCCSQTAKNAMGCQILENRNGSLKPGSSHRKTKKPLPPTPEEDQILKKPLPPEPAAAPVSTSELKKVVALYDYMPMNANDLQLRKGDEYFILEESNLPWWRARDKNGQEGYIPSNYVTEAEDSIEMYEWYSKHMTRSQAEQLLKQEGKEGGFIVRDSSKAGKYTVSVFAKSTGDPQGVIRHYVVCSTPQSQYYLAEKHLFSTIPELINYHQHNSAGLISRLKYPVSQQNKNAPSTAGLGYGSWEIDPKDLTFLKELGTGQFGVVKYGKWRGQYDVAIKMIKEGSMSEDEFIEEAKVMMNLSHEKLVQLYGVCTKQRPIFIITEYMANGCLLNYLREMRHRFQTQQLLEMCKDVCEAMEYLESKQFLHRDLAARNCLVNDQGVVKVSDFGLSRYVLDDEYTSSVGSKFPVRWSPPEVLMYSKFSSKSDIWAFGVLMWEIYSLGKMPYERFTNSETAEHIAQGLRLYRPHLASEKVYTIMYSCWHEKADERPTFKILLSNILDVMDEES
T11 sequence (P42680 whole entry): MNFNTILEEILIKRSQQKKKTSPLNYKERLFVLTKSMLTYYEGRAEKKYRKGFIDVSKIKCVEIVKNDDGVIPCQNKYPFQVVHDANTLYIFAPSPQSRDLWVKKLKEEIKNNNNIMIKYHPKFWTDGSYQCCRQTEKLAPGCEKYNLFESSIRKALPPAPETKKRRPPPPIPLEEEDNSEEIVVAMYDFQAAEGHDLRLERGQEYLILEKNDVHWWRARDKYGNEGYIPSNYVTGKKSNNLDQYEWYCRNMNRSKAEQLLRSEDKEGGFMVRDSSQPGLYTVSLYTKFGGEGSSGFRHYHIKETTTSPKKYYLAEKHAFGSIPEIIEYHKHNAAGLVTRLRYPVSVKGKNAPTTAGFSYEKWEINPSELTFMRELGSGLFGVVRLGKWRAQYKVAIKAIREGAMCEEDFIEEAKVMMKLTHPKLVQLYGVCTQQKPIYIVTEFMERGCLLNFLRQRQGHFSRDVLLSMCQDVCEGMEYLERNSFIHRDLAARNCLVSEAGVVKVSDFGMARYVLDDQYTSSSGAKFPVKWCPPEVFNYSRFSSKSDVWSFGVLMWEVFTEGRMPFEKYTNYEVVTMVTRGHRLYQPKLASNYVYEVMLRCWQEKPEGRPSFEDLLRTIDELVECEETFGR
T10 sequence (Q9Y3S1 whole entry): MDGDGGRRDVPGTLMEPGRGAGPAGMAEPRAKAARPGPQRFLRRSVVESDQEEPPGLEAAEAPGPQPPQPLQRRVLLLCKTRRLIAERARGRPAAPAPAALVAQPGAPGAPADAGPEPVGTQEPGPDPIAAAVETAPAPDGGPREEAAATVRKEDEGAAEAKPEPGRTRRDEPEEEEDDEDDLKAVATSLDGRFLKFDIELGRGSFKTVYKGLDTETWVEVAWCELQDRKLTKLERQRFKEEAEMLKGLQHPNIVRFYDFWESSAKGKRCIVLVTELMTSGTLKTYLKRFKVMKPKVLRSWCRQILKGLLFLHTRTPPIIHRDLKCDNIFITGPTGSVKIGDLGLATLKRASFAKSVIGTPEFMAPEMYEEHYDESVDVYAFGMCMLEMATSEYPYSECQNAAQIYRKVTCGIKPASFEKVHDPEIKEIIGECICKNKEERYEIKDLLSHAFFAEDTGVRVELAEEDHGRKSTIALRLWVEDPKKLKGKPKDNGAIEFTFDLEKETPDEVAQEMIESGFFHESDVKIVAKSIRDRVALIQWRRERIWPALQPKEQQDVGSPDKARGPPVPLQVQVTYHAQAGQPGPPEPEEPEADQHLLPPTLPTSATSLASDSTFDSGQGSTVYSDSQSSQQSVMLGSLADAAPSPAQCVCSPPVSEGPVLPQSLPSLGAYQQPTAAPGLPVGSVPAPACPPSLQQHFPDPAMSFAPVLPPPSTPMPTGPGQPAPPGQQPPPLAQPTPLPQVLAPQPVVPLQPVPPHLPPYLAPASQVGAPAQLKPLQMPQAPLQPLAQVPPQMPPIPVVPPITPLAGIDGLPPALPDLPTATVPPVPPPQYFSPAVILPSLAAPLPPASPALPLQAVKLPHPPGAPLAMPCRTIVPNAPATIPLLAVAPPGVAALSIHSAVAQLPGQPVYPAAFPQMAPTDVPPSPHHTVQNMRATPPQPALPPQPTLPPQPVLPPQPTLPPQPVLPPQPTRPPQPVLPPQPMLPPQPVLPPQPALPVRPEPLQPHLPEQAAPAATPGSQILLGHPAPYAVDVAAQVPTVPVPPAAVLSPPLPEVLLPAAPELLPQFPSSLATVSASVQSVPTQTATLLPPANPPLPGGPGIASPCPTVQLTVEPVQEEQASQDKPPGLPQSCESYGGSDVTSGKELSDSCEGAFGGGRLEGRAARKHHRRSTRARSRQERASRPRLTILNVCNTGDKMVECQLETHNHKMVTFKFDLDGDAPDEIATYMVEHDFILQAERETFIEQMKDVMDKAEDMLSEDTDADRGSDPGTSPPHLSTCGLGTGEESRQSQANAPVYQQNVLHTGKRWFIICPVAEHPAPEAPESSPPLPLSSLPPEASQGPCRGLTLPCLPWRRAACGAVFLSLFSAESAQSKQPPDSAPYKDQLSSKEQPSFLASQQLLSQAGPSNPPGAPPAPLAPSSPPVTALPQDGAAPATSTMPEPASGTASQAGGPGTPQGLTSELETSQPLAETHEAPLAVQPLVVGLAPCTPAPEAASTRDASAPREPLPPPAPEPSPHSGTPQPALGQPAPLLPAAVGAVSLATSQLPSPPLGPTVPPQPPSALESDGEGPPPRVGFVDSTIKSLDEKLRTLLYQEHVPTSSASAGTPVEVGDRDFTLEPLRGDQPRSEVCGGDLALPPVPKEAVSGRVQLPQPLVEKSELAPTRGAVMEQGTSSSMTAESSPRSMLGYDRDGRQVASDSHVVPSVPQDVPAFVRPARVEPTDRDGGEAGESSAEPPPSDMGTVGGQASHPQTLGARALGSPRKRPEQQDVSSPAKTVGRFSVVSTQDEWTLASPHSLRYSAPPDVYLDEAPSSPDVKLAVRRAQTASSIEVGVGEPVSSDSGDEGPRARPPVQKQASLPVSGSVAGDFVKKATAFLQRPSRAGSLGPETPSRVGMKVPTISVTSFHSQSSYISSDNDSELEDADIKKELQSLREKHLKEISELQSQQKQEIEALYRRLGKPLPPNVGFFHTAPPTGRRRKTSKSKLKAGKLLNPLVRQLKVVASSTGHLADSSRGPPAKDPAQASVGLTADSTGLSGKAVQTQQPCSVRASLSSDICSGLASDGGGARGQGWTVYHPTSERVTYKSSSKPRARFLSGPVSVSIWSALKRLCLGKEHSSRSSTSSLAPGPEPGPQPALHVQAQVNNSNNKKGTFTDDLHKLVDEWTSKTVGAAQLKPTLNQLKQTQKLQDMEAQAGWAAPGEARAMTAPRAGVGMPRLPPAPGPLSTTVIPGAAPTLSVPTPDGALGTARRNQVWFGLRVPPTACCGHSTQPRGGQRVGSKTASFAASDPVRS

SMILES: C[C@@H]1CC[C@H]2C(C)(C)CCC[C@]2(C)c2c1oc1c(C=O)c(O)c(O)cc21 [LG-1, liphagal]
- inhibition at 10 µM (FGFR4): 7.5%
- inhibition at 10 µM (CaMK2β): 1.9%
- inhibition at 10 µM (TAOK2): 24.5%
- inhibition at 10 µM (CGK2): 7.3%
- inhibition at 10 µM (DYRK2): 18.9%
- inhibition at 10 µM (CK1y1): 2.8%
- inhibition at 10 µM (AMFKα2/β1/γ1): 44.1%
- inhibition at 10 µM (AKT1): 3.1%
- inhibition at 10 µM (PKCζ): -7.2%
- inhibition at 10 µM (WNK2): 20.7%
- inhibition at 10 µM (TEC): -1.2%
- inhibition at 10 µM (ROCK1): 0.5%
- inhibition at 10 µM (INSR): 14.1%
- inhibition at 10 µM (EGFR(α746-750)): -5.1%
- inhibition at 10 µM (JNK1): -10.8%
- % Inhibition (MAP2K4 Cascade): 9.1%
- inhibition at 10 µM (CDK9/CvcT1): 18.8%
- inhibition at 10 µM (FRK): 1.4%
- inhibition at 10 µM (PAK5): -2.5%
- inhibition at 10 µM (CLK3): 5.7%
- inhibition at 10 µM (EEF2K): 22.4%
- inhibition at 10 µM (EPHA5): 2.3%
- inhibition at 10 µM (ALK): 9%
- inhibition at 10 µM (NuaK1): 6%
- inhibition at 10 µM (BRSK1): 9.2%
- inhibition at 10 µM (MAP4K2): 5%
- inhibition at 10 µM (DDR2): 42.5%
- inhibition at 10 µM (LTK): 1.8%
- inhibition at 10 µM (PKN1): 5.3%
- inhibition at 10 µM (TNK): 0.1%
- inhibition at 10 µM (MAP3K1_Cascade): 26.4%
- inhibition at 10 µM (BTK): 10.3%
- inhibition at 10 µM (FGFR4(V550L)): 7.8%
- % Inhibition (MAPXK2 Cascade): 2.7%
- inhibition at 10 µM (DCAMKL2): 14%
- inhibition at 10 µM (AXL): -4.2%
- inhibition at 10 µM (EPHA7): 8.7%
- inhibition at 10 µM (PKR): 13.8%
- inhibition at 10 µM (PDGF Ru(DB42V)): 1.5%
- inhibition at 10 µM (MARK1): -3.5%
- inhibition at 10 µM (PHKG2): 1.5%
- inhibition at 10 µM (JAK2): -0.7%
